Source: publication PMC8582824, “Targeting DDX3X Helicase Activity with BA103 Shows Promising Therapeutic Effects in Preclinical Glioblastoma Models” (Cancers, 2021)

Experiments:
Type in all cases: biochemical
DDX1 = target: T1, DDX1 (Homo sapiens, UniProt Q92499); assay: DDX1 helicase activity inhibition; conditions: for IC50: helicase activity of DDX1, read-out: DDX1 IC50 ± SD
T1 sequence (Q92499 1-740): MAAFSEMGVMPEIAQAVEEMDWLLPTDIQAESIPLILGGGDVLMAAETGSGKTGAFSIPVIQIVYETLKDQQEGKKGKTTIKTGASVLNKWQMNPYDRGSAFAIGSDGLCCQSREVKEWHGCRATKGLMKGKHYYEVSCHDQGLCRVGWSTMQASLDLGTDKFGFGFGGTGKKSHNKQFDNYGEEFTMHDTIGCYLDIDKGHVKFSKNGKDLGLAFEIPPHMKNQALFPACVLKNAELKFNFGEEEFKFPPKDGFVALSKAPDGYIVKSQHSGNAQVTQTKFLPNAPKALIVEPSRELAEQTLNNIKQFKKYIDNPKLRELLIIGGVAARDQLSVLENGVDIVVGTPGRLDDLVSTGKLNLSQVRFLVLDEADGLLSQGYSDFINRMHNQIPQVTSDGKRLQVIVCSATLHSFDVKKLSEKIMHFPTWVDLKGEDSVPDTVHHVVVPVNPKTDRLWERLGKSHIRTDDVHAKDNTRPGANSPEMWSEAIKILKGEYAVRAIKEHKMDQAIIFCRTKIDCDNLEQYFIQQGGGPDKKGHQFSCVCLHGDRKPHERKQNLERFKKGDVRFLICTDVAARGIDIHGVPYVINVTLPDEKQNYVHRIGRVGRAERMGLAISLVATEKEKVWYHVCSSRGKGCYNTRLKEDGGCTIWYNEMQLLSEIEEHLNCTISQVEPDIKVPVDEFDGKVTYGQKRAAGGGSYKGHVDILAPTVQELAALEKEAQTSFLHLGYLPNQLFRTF
Description: (§1) To confirm the proposed mechanism of action and the selectivity of our compounds for the helicase binding site, we tested the capability of BA103 to inhibit the ATPase activity of DDX3X and the helicase activity of DDX1, which is another human member of the DEAD-box family.

DDX3X helicase activity = target: T2, DDX3X helicase activity (Homo sapiens, UniProt O00571); assay: FRET-based DDX3X helicase assay; conditions: FRET helicase assay, recombinant DDX3X; for IC50: read-out: IC50 ± SD, DDX3X anti-enzymatic (helicase) activity
T2 construct: Recombinant his-tagged human full length DDX3X; His tag; made in house; host or cells: ShuffleT7 E. coli
Experimental: Recombinant his-tagged human full length DDX3X cloned the E. coli expression vector pET-30a(+). ShuffleT7 E. coli cells were transformed with the plasmid and grown at 37 °C up to OD600 = 0.7. DDX3X expression was induced with 0.5 mM IPTG at 15 °C O/N. Cells were harvested by centrifugation, lysed, and the crude extract was centrifuged at 100,000 g for 60 min at 4 °C in a Beckman centrifuge before being loaded onto a FPLC Ni-NTA column (GE Healthcare, Chicago, IL, USA). The column was equilibrated in Buffer A (50 mM Tris-HCl pH 8.0, 250 mM NaCl, 25 mM Imidazole and 20% glycerol). After extensive washing in Buffer A, the column was eluted with a linear gradient in Buffer A from 25 to 250 mM Imidazole. Proteins in the eluted fractions were visualized on SDS-PAGE and tested for the presence of DDX3X by Western blot with anti-DDX3X A300-475A (Bethyl Laboratories, Montgomery, TX, USA) at 1:4000 dilution in 5% milk. Fractions containing the purest DDX3X protein were pooled and stored at −80 °C.
The dsRNA substrate for the helicase assay was prepared by hybridizing two ss RNA oligonucleotides with the following sequences: • Fluo-FAM 5′ […] 3′ • Qu-BHQ1 5′ […] 3′ • DNA capture 5′ […] 3′.
The sequence in Fluo-FAM complementary to Qu-BHQ1 is underlined. Fluo-FAM carries a 6-carboxyfluorescein fluorophore at its 3′ end, while Qu-BHQ1 carries a Black Hole quencher group at its 5′ end. The DNA capture oligonucleotide is complementary to the Qu-BHQ1 oligonucleotide, but it bears no modifications. A helicase assay using the dsRNA substrate was performed in 20 mM TrisHCl (pH 8), 70 mM KCl, 2 mM MgCl2, 2 mM dithiothreititol, 12 units RNasin (Promega), 2 mM ATP, 50 nM dsRNA, and 100 nM capture strand in 20 μL of reaction volume. The unwinding reaction was started by adding 60 pmols of DDX3X recombinant protein and carried out at 37 °C for 40 min using a LightCycler 480 (Roche, Basel, Switzerland). The fluorescence intensity was recorded every 30 s. Values of fluorescence signal in the presence or in the absence of inhibitor molecules were analyzed by linear interpolation, and the corresponding slope values were used to determine the apparent unwinding rate.
The IC50 values have been calculated from dose–response curves. Data (in triplicate) were plotted and analyzed by least-squares nonlinear regression, according to the method of Marquardt–Levenberg, with the computer program GraphPad Prism 6.0. Data were fitted to the following equation:Eobs = Emax/(1 + (IC50/[I])^n)(1) where E(obs) is the observed enzymatic activity in the presence of each inhibitor dose [I]; E(max) is the maximal enzymatic activity in the absence of the inhibitor; and n is an exponential term to take into account sigmoidal dose–response curves.
All the compounds were tested for their ability to inhibit the helicase activity of DDX3X using a fluorescence resonance energy transfer (FRET)-based assay, as previously described. Values of fluorescence signal in the presence or in the absence of inhibitor molecules were analyzed by linear interpolation (for details, see Methods 2.3.2).

ATPase DDX3X = target: T3, ATPase DDX3X (Homo sapiens, UniProt O00571); assay: DDX3X ATPase activity inhibition; conditions: for IC50: >200 = less than 20% inhibition at 200 µM, highest concentration tested, read-out: ATPase DDX3X IC50 ± SD
T3 construct: Recombinant his-tagged human full length DDX3X; His tag; made in house; host or cells: ShuffleT7 E. coli
Description: as §1

T3 sequence (O00571 whole entry): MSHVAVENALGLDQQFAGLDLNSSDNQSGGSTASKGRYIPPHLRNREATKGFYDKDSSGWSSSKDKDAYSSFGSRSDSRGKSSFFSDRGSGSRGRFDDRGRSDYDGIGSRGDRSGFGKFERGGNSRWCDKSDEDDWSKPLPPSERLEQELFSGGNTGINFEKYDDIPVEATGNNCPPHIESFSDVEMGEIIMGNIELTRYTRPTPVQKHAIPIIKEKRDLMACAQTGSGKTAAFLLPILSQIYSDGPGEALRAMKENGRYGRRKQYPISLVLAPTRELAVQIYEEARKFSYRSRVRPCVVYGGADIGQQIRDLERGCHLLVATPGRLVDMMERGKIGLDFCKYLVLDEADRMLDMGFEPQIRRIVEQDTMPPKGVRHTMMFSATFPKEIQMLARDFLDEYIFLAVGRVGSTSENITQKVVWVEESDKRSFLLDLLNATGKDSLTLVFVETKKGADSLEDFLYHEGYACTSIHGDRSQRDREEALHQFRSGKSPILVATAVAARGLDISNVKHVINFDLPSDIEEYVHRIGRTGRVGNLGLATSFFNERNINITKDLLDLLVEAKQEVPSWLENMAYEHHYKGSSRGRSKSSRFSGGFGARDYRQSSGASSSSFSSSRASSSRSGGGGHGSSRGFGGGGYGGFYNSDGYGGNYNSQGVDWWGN
T2 sequence (O00571 whole entry): as above

Compound | SI (Selectivity Index) (DDX1) | IC50 (DDX1) [nM] | IC50 (DDX3X helicase activity) [nM] | IC50 (ATPase DDX3X) [nM] | IC50 ± SD, DDX3X anti-enzymatic (helicase) activity (DDX3X helicase activity) | inhibition of the ATPase activity of DDX3X (ATPase DDX3X; any compound concentration)
CCCCc1cn(-c2ccc(NC(=O)Nc3ccccc3C)cc2)nn1 [Compound 1, reference compound] | >666 | > 200000 | 300 ± 70 | > 200000 |  | 
CC(C)CCc1cn(-c2ccc(NC(=O)Nc3cccc4cnccc34)cn2)nn1 [Compound 10, 1-(6-(4-Isopentyl-1H-1,2,3-triazol-1-yl)pyridin-3-yl)-3-(isoquinolin-5-yl)urea] | >1000 | > 100000 | 100 ± 30 |  | submicromolar range | 
CCCCc1cn(-c2ccc(NC(=O)Nc3ccccc3C(F)(F)F)cc2)nn1 [BA103, 1-(4-(4-Butyl-1H-1,2,3-triazol-1-yl)phenyl)-3-(2-(trifluoromethyl)phenyl)urea] | >250 | > 100000 | 400 ± 50 | > 200000 | submicromolar range | no inhibition
CCCCc1nnc(-c2ccc(NC(=O)Nc3ccccc3C(F)(F)F)cc2)[nH]1 [Compound 4, 1-(4-(5-Butyl-4H-1,2,4-triazol-3-yl)phenyl)-3-(2-(trifluoromethyl)phenyl)urea] | 418 | 29300 ± 16800 | 70 ± 20 |  | submicromolar range | 
CCCCn1nnc(-c2ccc(NC(=O)Nc3ccccc3C(F)(F)F)cc2)n1 [Compound 6, 1-(4-(2-Butyl-2H-tetrazol-5-yl)phenyl)-3-(2-(trifluoromethyl)phenyl)urea] |  |  |  |  | submicromolar range | 
